Measurements as given in ChEMBL document CHEMBL5380860, “Design, Synthesis, and Antitumor Activity of Potent and Selective EGFR L858R/T790M Inhibitors and Identification of a Combination Therapy to Overcome Acquired Resistance in Models of Non-small-cell Lung Cancer” (J Med Chem, 2023).
The source made the active and inactive calls. No cut-off for these calls is given here.

Experiments:
[1] = biological target: Epidermal growth factor receptor (Homo sapiens, UniProt P00533, L858R/T790M); test: Inhibition of human partial length EGFR (R669 to V1011 residues) L858R/T790M mutant expressed in mammalian expression system by KINOMEscan analysis
[2] = Toxicity in BALB/c mouse xenografted with human NCI-H1975 cells assessed as change in kidney morphological changes at 5 to 20 mg/kg/day, ip by hematoxylin-eosin staining based analysis; type: organism-based; conditions: in vivo, dose 5-20 mg/kg/day
[3] = system: Epidermal growth factor receptor (Homo sapiens), P00533 [L858R,T790M]; test: Covalent binding affinity to EGFR L858R/T790M mutant (unknown origin) assessed as enzyme-compound complex formation at protein to compound concentration ratio of 1:4 incubated for 1 hr by LC-MS analysis
[4] = biological target: Epidermal growth factor receptor (Homo sapiens, UniProt P00533); test: Inhibition of wild type EGFR in human A-431 cells assessed as inhibition of EGF-induced EGFR phosphorylation at Tyr1068 residue at 0.1 to 10 uM pretreated with compound for 4 hrs followed by incubation with EGF for 10 mins by western blot analysis; type: toxicity, cell-based; conditions: a-431, 4.167 h, dose 0.1-10 µM, time 250 min
[5] = biological target: T1, Tyrosine-protein kinase Tec (Homo sapiens) (UniProt P42680); test: Inhibition of human wild type partial length TEC kinase (L341 to D620 residues) expressed in bacterial expression system assessed as residual activity at 1 uM by KINOMEscan analysis
T1 sequence (whole entry): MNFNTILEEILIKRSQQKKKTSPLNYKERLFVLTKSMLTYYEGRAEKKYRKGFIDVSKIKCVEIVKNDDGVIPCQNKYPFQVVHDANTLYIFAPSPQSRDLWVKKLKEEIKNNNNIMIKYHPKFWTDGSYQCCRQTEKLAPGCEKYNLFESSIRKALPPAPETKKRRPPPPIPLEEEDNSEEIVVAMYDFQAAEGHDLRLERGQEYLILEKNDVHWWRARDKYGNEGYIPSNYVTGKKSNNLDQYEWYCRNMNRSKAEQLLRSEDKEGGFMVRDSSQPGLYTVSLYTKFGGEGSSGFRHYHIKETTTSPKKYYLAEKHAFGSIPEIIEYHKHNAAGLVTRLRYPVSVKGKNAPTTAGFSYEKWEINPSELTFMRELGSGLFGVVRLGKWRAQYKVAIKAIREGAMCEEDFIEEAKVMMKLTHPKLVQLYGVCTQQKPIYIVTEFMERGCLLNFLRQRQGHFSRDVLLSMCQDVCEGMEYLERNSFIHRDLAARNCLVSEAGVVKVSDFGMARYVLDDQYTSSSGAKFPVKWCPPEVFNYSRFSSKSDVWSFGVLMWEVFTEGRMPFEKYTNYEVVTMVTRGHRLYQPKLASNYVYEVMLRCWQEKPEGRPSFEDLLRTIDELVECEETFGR

[6] = Covalent binding affinity to L-cysteine assessed as increase in 619.2 Da mass at L-cysteine to compound concentration ratio of 1:4 incubated for 8 hrs by LC-MS analysis
[7] = (§1) Toxicity in BALB/c mouse xenografted with N-(3-((6-Fluoro-2-((4-(4-methylpiperazin-1-yl)phenyl)amino)quinazolin-4-yl)amino)phenyl)acrylamide-resistant human NCI-H1975 cells assessed as changes in spleen morphological changes at 20 mg/kg/day, ip in presence of ACK1 inhibitor, dasatinib by hematoxylin-eosin staining based analysis; type: organism-based; conditions: in vivo
[8] = system: NCI-H1975; test: Antitumor activity against N-(3-((6-Fluoro-2-((4-(4-methylpiperazin-1-yl)phenyl)amino)quinazolin-4-yl)amino)phenyl)acrylamide-resistant human NCI-H1975 cells xenografted in BALB/c mouse assessed as […] in TUNEL-positive cells in tumor at 20 mg/kg/day, ip in presence of ACK1 inhibitor, dasatinib by TUNEL assay; type: functional, organism-based
[9] = Selectivity ratio of IC50 for cytotoxicity against human A-431 cells harboring wild type EGFR to IC50 for antiproliferative activity against human NCI-H1975 cells harboring EGFR L858R/T790M mutant; type: toxicity, cell-based; conditions: read-out: Ratio IC50
[10] = system: NCI-H1975; test: (§2) Antiproliferative activity against N-(3-((6-Fluoro-2-((4-(4-methylpiperazin-1-yl)phenyl)amino)quinazolin-4-yl)amino)phenyl)acrylamide-resistant human NCI-H1975 cells assessed as reduction in cell viability at compound:dasatinib concentration ratio of 3:1 to 1:3 measured after 72 hrs in presence of ACK1 inhibitor, Dasatinib by MTT assay; type: functional, cell-based
[11] = Cmax in Sprague-Dawley rat at 1 mg/kg, iv by LC-MS analysis; type: ADME, organism-based; set-up: dose 1 mg/kg, route iv; conditions: in vivo
[12] = system: Epidermal growth factor receptor (Homo sapiens), P00533 [L858R,T790M]; test: Covalent binding affinity to EGFR L858R/T790M mutant (unknown origin) assessed as covalent adduct formation at Cys797 residue at protein to compound concentration ratio of 1:4 incubated for 1 hr and measured following enzymatic hydrolysis by LC-MS analysis
[13] = biological target: wild type EGFR (Homo sapiens, UniProt P00533); test: Inhibition of human wild type partial length EGFR (R669 to V1011 residues) expressed in bacterial expression system assessed as residual activity at 1 uM by KINOMEscan analysis; type: toxicity; conditions: read-out: Activity
[14] = system: NCI-H1975; test: Inhibition of clonogenicity in human NCI-H1975 cells assessed as inhibition of colony formation incubated for 14 days by crystal violet staining based analysis; type: functional, cell-based; conditions: dose 0.1-10 µM, time 14.0 day
[15] = biological target: T2, Tyrosine-protein kinase Tec (Homo sapiens, UniProt P42680); test: Inhibition of human wild type partial length TEC kinase (L341 to D620 residues) expressed in bacterial expression system by KINOMEscan analysis
T2 sequence (P42680 whole entry): T1 sequence (whole entry)

[16] = as §1, with “lung” for “spleen”; type: organism-based; conditions: in vivo
[17] = system: Epidermal growth factor receptor (Homo sapiens), P00533 [L858R,T790M]; test: (§3) Inhibition of EGFR L858R/T790M mutant in N-(3-((6-Fluoro-2-((4-(4-methylpiperazin-1-yl)phenyl)amino)quinazolin-4-yl)amino)phenyl)acrylamide-resistant human NCI-H1975 cells assessed as inhibition of EGF-induced Akt phosphorylation at Ser473 residue pretreated with compound for 4 hrs followed by incubation with EGF for 10 mins by western blot analysis; type: cell-based; conditions: time 250.0 min
[18] = system: A549; test: Induction of apoptosis in human A549 cells assessed as induction of PARP cleavage at 0.1 to 10 uM pretreated with compound for 4 hrs followed by incubation with EGF for 10 mins by western blot analysis; type: toxicity, cell-based; conditions: a549, 4.167 h, dose 0.1-10 µM, time 250 min
[19] = system: NCI-H1975; test: Synergistic antiproliferative activity against N-(3-((6-Fluoro-2-((4-(4-methylpiperazin-1-yl)phenyl)amino)quinazolin-4-yl)amino)phenyl)acrylamide-resistant human NCI-H1975 cells assessed as combination index measured after 72 hrs in presence of ACK1 inhibitor, AIM100 by MTT assay; type: functional
[20] = system: NCI-H1975; test: as §2, with “compound:Bosutinib” for “compound:dasatinib”, “Bosutinib” for “Dasatinib”; type: functional, cell-based
[21] = system: Epidermal growth factor receptor (Homo sapiens), P00533 [L858R,T790M]; test: as §3, with “AKT” for “Akt”, “compound and ACK1 inhibitor, Bosutinib” for “compound”; type: cell-based; conditions: time 250.0 min
[22] = system: NCI-H1975; test: Antitumor activity against human NCI-H1975 cells xenografted in BALB/c mouse assessed as tumor regression at 10 mg/kg/day, po; type: functional, organism-based
[23] = species: Mus musculus; conditions: BALB/c, dose 10.0 mg/kg/day, route po

C=CC(=O)Nc1cccc(Nc2nc(Nc3ccc(N4CCN(C)CC4)cc3)nc3ccc(F)cc23)c1
IC50 [1]: 3.5 nM | Activity [2]: Non-Toxic | Activity [3]: Active | inhibition (INH) [4]: Not Active | Activity [5]: 14% | Activity [6]: Active | Activity [7]: Non-Toxic | Activity [8]: Active | selectivity ratio [9]: 130 | Activity [10]: Active | Cmax [11]: 650 ng/mL | Activity [12]: Active | activity at 1 µM [13]: 96% | inhibition [14]: Dose-Dependent Effect | IC50 [15]: 518 nM | Activity [16]: Non-Toxic | inhibition [17]: inactive | Activity [18]: Non-Toxic | CI [19]: <2 | Activity [20]: Active | inhibition [21]: Active

C=CC(=O)Nc1cc(Nc2nccc(-c3cn(C)c4ccccc34)n2)c(OC)cc1N(C)CCN(C)C [OSIMERTINIB]
Activity [22]: Active | inhibition [23]: Active
